Literature values in EP4101443A1, “HOT-MELT COATED PARTICLES WITH PH-DEPENDENT RELEASE” (HERMES PHARMA GmbH, priority 2021, dated 2022).
Values after ≈ are worked out from the molar mass of the structure shown.

solubility [mg/mL] | SMILES
2.24 (≈ 12.4 mM) | CC(=O)Oc1ccccc1C(=O)O [ASA, acetylsalicylic acid]
200 (≈ 1230 mM) | CC(=O)N[C@@H](CS)C(=O)O [NAC, N-acetylcysteine]
